Numbered stars: 1 amine (or outer) side, 2 acyl side, 3 side chain; on linkers, the order of the positions; unused ones are H or OH. Square brackets hold non-standard residues; d marks the D form. Peptide text beside a SMILES is read from it. * marks the point of attachment. Exatecan = CC[C@@]1(O)C(=O)OCc2c1cc1n(c2=O)Cc2c-1nc1cc(F)c(C)c3c1c2[C@@H](N*)CC3; Propanoyl(3-maleimido) = O=C1C=CC(=O)N1CCC(=O)*; PABC = O=C(OCc1ccc(N[*:1])cc1)[*:2]
Test: Aggregation studies: % monomer by SEC after conjugation to test monoclonal antibody
Format: physicochemical
Settings: 95% monomer or greater assessed as low aggregation
Method: Aggregation is a process in which molecules self-associate with each other. In the context of the present invention, aggregation levels are assessed during the conjugation of a linker construct to an antibody. During conjugation, aggregation is quantified in terms of percentage monomer content. High percentage monomer values typically equate to a lower degree of aggregation. Percentage monomer values of 93% or 95% or higher typically mean negligible levels of aggregation or none, whereas values below this threshold typically translate to higher levels of aggregation.
2 mg of test monoclonal antibody at 8.87 mg/mL was pH adjusted with 5% 0.5 M Tris, 0.025 M EDTA, pH 8.5 and reduced with 2.3 mol. eq TCEP and then conjugated with 6 mol. eq drug linker. […] Percentage monomer values of 95% or greater are assessed as low aggregation.
Aggregation levels were assessed during the conjugation to the test antibody.
During conjugation, we are ideally targeting a monomer content or percentage monomer of 95% or above. Low percentage monomer values usually translate to a higher degree of aggregation. One could therefore agree that percentage monomer values of 95% or higher mean very low levels of aggregation or none, whereas values below this threshold often translate to higher levels of aggregation.

CC[C@@]1(O)C(=O)OCc2c1cc1n(c2=O)Cc2c-1nc1cc(F)c(C)c3c1c2[C@@H](NC(=O)OCc1ccc(NC(=O)[C@H](C)NC(=O)[C@@H](NC(=O)CNC(=O)CNC(=O)CNC(=O)CNC(=O)CNC(=O)CCN2C(=O)C=CC2=O)C(C)C)cc1)CC3 [Mal-Gly5-VA-PABC-Exatecan] ({Propanoyl(3-maleimido)}-GGGGGVA[PABC]-Exatecan)
Aggregation (grade in words): None
